Data set [1] deals with Heterodera glycines (SCN). Description: Seed treatment test of soybean cyst nematode on soybean. The data set is classed as in vivo. The note with it: Heterodera glycines, 672 h, read-out: percent cyst reduction relative to control blank treatment; for pest or weed control at 0.375 mg/g: 0.375 mg ai/gram seed; for pest or weed control at 1.5 mg/g: 1.5 mg ai/gram seed. As for the experimental part: For a given concentration the chemical is dissolved in 500 ul of acetone and one gram of cucumber seed (RKN test) or soybean seed (SCN test) is added (e.g., 20 mg active ingredient in 500 ul acetone plus 1 gram of seed). The seed solutions are agitated until all seeds were thoroughly covered with the chemical solution. The acetone is then allowed to evaporate by air drying the seeds. The seeds are planted in 2-inch pots containing sandy soil and then the pots are inoculated with 1000 Meloidogyne incognita (RKN) or 1000 Heterodera glycines (SCN) eggs per pot three days after planting. Plants are rated for galling 14 days after egg inoculation for RKN or 28 days after egg inoculation for SCN.

Data set [2] concerns root knot nematode. Description: Pre-plant incorporated (PPI) greenhouse test of root knot nematode on cucumber plants. Particulars: fourteen day pre-plant incorporated; for pest or weed control at 4000 g/ha: 336 h, 4 kg/ha, read-out: percent control (galling reduction), 4 kg/ha rate; for pest or weed control at 8000 g/ha: 8 ka/ha, read-out: percent control (galling reduction), 8 ka/ha rate. The format is in vivo. An excerpt: The PPI test examines the effect of pre-incorporation of compounds in soil and longer aging to simulate in furrow methods of nematicide application in the field. The PPI test exposes compounds to a higher volume of soil and drying which can result in more severe soil binding. Compounds are also aged for longer periods which can lead to more extensive biotic and abiotic degradation further limiting activity.
The chemically treated soil (sandy soil mix) for all treatment days (e.g., 7 days, 14 days, 21 days) treatments is potted into their appropriate pots. On the same day the 7 day treatment pots are seeded. One week later eggs are applied and 14 days after egg application the test is harvested. The 14 day treatments are planted 7 days after the first planting. The 14 day planting and 7 day inoculation happen on the same day. One week later the 14 day treatments are inoculated with eggs. These are harvested 14 days after the inoculation. The 21 day treatments are planted 14 days after the first planting. The 14 day inoculation and 21 day planting are done on the same day. One week later the 21 day plants are inoculated with eggs. The 7 day treatment is harvested the same day as the 21 day inoculation. Fourteen days after inoculation the 21 day plants are harvested.
For each compound a stock is prepared using 4 mg material in 4 ml of acetone. The soil is mixed by placing 80 ml of field soil and 320 ml of sand in a plastic bag and mixing well. The formulation for treatment is done by adding 2.13 ml (8 kg/ha rate), 1.06 ml (4 kg/ha rate) or 0.53 ml (2 kg/ha rate) to a vial and raising it with 10 ml in 0.05% X100. Soil is then treated by adding the entire 10 ml to the 400 ml of mix in the bag. The treated soil is immediately mixed well in the sealed bag to distribute the compound evenly. Approximately 95 ml is used to fill each 2-inch square pot up to the top with some soil compression and flattening. For each compound and for the control treatments 4 pots are filled. All pots are watered until moist but with no run-out through the bottom.
The PPI test simulates 8, 4 and 2 kg/ha rates incorporated 15 cm deep in the field and is equivalent to the 2, 1 and 0.5 kg/ha drench application rates in the standard 2-inch pot cucumber greenhouse assay.

For data set [3], the system named is root knot nematode (RKN). As to the kind of experiment: RKN greenhouse soil assay on cucumber plants. The format is in vivo. The note with it: Acetone formulation (10% acetone in 0.05% Triton X 100), 1 mg/kg. The text has this:
Cucumber seeds are planted in a sandy soil mixture in two inch square plastic pots. When the cotyledons are fully opened and just as the first leaf begins to emerge, usually 7 days after planting, chemistry for the 7 day treatment is applied. One week later the chemistry for the 0 day treatment is applied. Separate plants are used for each application. The plants are generally in the 1-2 leaf stage now. At least four hours after the chemistry application the pots are inoculated with root knot nematode (RKN) eggs. Plants are rated for galling 14 days after the egg inoculation.
(§1) One milligram of chemistry per four pots is equal to one kilogram per hectare of chemical. A standard test uses four replications. For rates above 2 kg/ha, the desired amount of chemical is weighed into a 30 ml vial (example: 8 kg/ha rate =8 mg chemical in 30 ml vial). The chemical is dissolved in 2 ml of appropriate solvent, generally acetone. For rates below 2 kg/ha, 2 milligrams of chemistry is weighed into the vial and dissolved in 2 ml of the solvent. The appropriate amount of chemical concentrate is then pipetted into a separate 30 ml vial and solvent is added to bring the volume to 2 ml (example 0.5 kg/ha=0.5 ml of concentrate+1.5 ml solvent). Each dissolved concentrate is then brought to a total of 20 milliliters using 0.05% Triton X 100 surfactant solution.
(§2) Pots to be treated are moist but not saturated. To each of four pots, five milliliters of the appropriate chemical solution is pipetted to the media surface making sure to avoid contact with the base of the plant. Immediately following chemical application, using a mist nozzle, the pot surface is wetted sufficiently to saturate the pot watering in the chemistry. The chemical application is done in the morning.
(§3) Nematode eggs, either SCN or RKN, are added to distilled water to create a concentration of 1000 vermiform eggs […]. At least four hours after chemical treatment the eggs are applied to the treated pots plus non-treated check plants. A small hole about 1 cm deep is punched into the pot surface. One milliliter of the nematode egg slurry is pipetted into the hole. Immediately afterwards the hole is gently covered. Watering of the test plants is then restricted to only water as needed to prevent wilt for a period of 24 hours. After the 24 hour restricted watering, normal sub-irrigation watering is done for the duration of the test.

Data set [4] deals with root knot nematode (RKN). As to the kind of experiment: RKN greenhouse soil assay on cucumber plants. The note with it: Radex emulsifiable concentrate formulation (6.25% active ingredient). The data set is classed as in vivo.
Data set [5] relates to Meloidogyne incognita. Description: Summer field evaluation of pre-plant incorporated compounds on squash. The note with it: 4 kg/ha. The format is in vivo. As to the method: Test plots of 33 cm diameter holes were bored 41 cm deep into clay soil and filled with a mixture of 80% sand and 20% silt loam soil. Technical compound for each treatment was dissolved in 50 ml acetone containing 250 ul of Triton X-100 surfactant. This solution was added to 450 ml water and poured onto 95 liters of sand/soil mixture in a rotating drum mixer. While continuing to rotate the mixing drum 66 grams of chopped, galled, tomato roots was added and thoroughly distributed. The treated soil was sufficient to fill the top 15 cm of each of the 6 replicate plots, thus simulating a PPI treatment. The plots were then watered lightly and a mixture of M. incognita eggs and larvae were injected 5 cm deep at 5 points within the plot (100k eggs/larvae in 10m1 per plot). Three-week old squash (cv. Liberator III) with 1 fully expanded true leaf was planted 4 days after soil treatment, one per plot.

In data set [6] the test system is C. elegans. As to the kind of experiment: Three day C. elegans well assay. The format is in vivo. Particulars: Caenorhabditis elegans, L1 larvae. The procedure, abridged: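 Contact assay in wells: DMSO dilutions (4 ul from 100× stocks at 10 mg/ml) with bacterial feed in M9 buffer plus ampicillin and nystatin. L1 (starvation-arrested) or L4 worms added, shaken at 20° C. Scored at 4, 24, 48 and 72 hours.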

For data set [7], the system named is caspase-3. As to the kind of experiment: Caspase-3 activity in H4IIE cells (DEVD-AMC). The data set is classed as cell-based. The note with it: rat hepatoma derived H4IIE cells, concentrations up to 300 μM. As for the experimental part:
To evaluate whether the compound classes of this invention are able to induce apoptosis, caspase-3 activity was determined after compound exposure in rat hepatoma derived H4IIE cells using a caspase substrate (DEVD, Asp-Glu-Val-Asp) labeled with a fluorescent molecule, 7-Amino-4-methylcoumarin (AMC). Caspase 3 cleaves the tetrapeptide between D and AMC, thus releasing the fluorogenic […] AMC. Following the test article exposure to cells in 96-well plates, medium was aspirated from plates and PBS added to each well. Plates were stored at −80° C. to lyse cells and store samples until further analysis. On the day of analysis, plates were removed from freezer and thawed. Caspase buffer with fluorescent substrate was added to each well and incubated at room temperature for one hour. AMC release was measured in a spectrofluorometer at an excitation wavelength of 360 nm and an emission wavelength of 460 nm. Values are expressed as relative fluorescent units (RFU).

Data set [8] deals with soybean cyst nematode (SCN). Description: SCN greenhouse sand assay on soybean plants. The format is in vivo. Particulars: Glycine max, 672 h, test d, read-out: percent control (cyst number reduction) relative to the control blank treatment; for pest or weed control at 100 g/ha: 0.1 kg/ha; for pest or weed control at 250 g/ha: 0.25 kg/ha.
Description: Soybeans seeds are planted in 100% sand in two inch square plastic pots. Chemical treatment is done when the soybeans show the first trifoliate beginning to emerge about 10 to 12 days after planting. At least four hours after chemical application the nematode soybean cyst nematode (SCN) eggs are applied and 28 days after the egg inoculation the test is harvested.
as §1, §2, §3

Setting [9] is: 24 h, one day of exposure, read-out: EC50 L1 1D.
[10] abbreviates: 48 h, two days of exposure, read-out: EC50 L1 2D.
The mark [11] stands for this setting: 72 h, three days of exposure, read-out: EC50 L1 3D.

≈ marks a conversion by molar mass, not a printed value. Read-outs that look alike come from different tables or passages of the source. Marks after values point to notes of the source that are not given here.

`Fc1ccc(-c2noc(-c3cccs3)n2)cc1` [compound 5479]: in data set [1] (test a), the pest or weed control at 0.375 mg/g was 67% and the pest or weed control at 1.5 mg/g turned out to be 88%. Also, in data set [1] (test b), the pest or weed control at 0.375 mg/g amounted to 69% and the pest or weed control at 1.5 mg/g is 83%. Further, in data set [2] (test a), the pest or weed control at 4000 g/ha came out at 89%; the “percent control (galling reduction), 2 kg/ha rate” value is reported as 71^a percent; the pest or weed control at 8000 g/ha was 100%. In addition, the “percent control (galling reduction), Acetone 1 mg/kg” value in data set [3] was 91%. Moreover, the “percent control (galling reduction), Radex 1 mg/kg” value in data set [4] was 96%.

On to `Clc1ccc(-c2noc(-c3ccco3)n2)cc1` [compound 5523], for which the “control of M. incognita by PPI application” value in data set [5] was “significant control”. For the same compound, in data set [2] (test a), the pest or weed control at 4000 g/ha was found to be 87%; the “percent control (galling reduction), 2 kg/ha rate” value was 59^a percent; the pest or weed control at 8000 g/ha worked out at 99%. In addition, in data set [3], the “percent control (galling reduction), Acetone 1 mg/kg” value is on record as 86%. Also, in data set [4], the “percent control (galling reduction), Radex 1 mg/kg” value is 86%.

With `Clc1ccc(-c2noc(-c3cccs3)n2)cc1` [compound 5527], in data set [1] (test a), the pest or weed control at 0.375 mg/g worked out at 43% and the pest or weed control at 1.5 mg/g was determined as 71%. In data set [2] (test a), the pest or weed control at 4000 g/ha came out at 90%; the “percent control (galling reduction), 2 kg/ha rate” value is reported as 57^a percent; the pest or weed control at 8000 g/ha was 96%. Further, the “percent control (galling reduction), Acetone 1 mg/kg” value in data set [3] worked out at 91%. In addition, the “percent control (galling reduction), Radex 1 mg/kg” value in data set [4] came out at 80%.

As for `Fc1cc(Cl)ccc1-c1cnc(-c2cccs2)o1` [compound 5915], the EC50 in data set [6] (setting [9]) was 0.4 µg/mL (≈ 1.43 µM). Also, the EC50 in data set [6] (setting [10]) was determined as 0.4 µg/mL (≈ 1.43 µM). Moreover, the concentration for a half-maximal effect (EC50) in data set [6] (setting [11]) was 0.4 µg/mL (≈ 1.43 µM). Also, the “induction of caspase-3” value in data set [7] was “no induction of caspase-3”. Further, in data set [8], the pest or weed control at 100 g/ha turned out to be 44% and the pest or weed control at 250 g/ha was 74%. Further, in data set [2] (test b), the pest or weed control at 4000 g/ha worked out at 70% and the pest or weed control at 8000 g/ha is 99%.

Take `Cc1cc(Cl)ccc1-c1nsc(-c2ccco2)n1` [compound 5938]: the half-maximal effective concentration (EC50) in data set [6] (setting [9]) is 1.6 µg/mL (≈ 5.78 µM). In addition, in data set [6] (setting [10]), the EC50 is 1.6 µg/mL (≈ 5.78 µM). The EC50 in data set [6] (setting [11]) amounted to 1.6 µg/mL (≈ 5.78 µM). Also, the “induction of caspase-3” value in data set [7] is recorded as “no induction of caspase-3”. In addition, the “control of M. incognita by PPI application” value in data set [5] is listed as “excellent control”. In data set [8], the pest or weed control at 100 g/ha came out at 60% and the pest or weed control at 250 g/ha amounted to 89%. In addition, in data set [2] (test b), the pest or weed control at 4000 g/ha is 90% and the pest or weed control at 8000 g/ha amounted to 100%.

(Values after patent US20170367338A1, “COMPOSITIONS AND METHODS FOR IMPROVING AGRONOMIC CHARACTERISTICS OF PLANTS” (MONSANTO TECHNOLOGY LLC, priority 2014, published 2017).)
